Here are results for 23 compounds from US20220395496A1 (Hoffmann-La Roche Inc., priority 2019, published 2022).

This experiment addresses T1, human TLR8 (Homo sapiens, UniProt Q9NR97).
T1 sequence (Q9NR97 27-1041): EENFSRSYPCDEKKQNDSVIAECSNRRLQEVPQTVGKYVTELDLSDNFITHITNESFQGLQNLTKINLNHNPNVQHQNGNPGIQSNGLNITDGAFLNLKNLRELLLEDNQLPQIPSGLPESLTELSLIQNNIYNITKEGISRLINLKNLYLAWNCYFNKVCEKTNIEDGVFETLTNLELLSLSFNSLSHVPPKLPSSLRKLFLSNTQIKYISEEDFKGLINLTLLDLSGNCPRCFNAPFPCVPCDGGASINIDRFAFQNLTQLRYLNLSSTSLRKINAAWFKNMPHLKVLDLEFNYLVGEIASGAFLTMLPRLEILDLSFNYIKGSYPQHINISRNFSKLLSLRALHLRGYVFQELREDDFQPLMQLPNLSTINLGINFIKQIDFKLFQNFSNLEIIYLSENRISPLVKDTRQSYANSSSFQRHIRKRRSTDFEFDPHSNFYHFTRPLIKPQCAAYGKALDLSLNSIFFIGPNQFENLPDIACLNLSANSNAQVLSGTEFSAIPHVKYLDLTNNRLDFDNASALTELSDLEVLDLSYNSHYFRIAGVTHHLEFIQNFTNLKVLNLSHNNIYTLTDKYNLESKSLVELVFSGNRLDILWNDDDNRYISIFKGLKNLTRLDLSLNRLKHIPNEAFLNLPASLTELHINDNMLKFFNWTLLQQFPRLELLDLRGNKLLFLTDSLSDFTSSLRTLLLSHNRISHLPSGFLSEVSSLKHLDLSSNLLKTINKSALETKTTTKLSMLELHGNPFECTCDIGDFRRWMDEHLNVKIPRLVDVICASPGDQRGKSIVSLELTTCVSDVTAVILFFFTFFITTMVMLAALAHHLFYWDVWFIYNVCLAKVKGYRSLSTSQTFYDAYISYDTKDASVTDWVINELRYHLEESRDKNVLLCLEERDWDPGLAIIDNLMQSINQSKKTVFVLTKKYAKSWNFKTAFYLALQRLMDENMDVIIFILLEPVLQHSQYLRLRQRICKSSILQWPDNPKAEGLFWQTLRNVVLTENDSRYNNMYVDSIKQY
The experiment can be described thus: HEK293-Blue-hTLR-8 cells assay (SEAP reporter, R848 stimulation). The format is cell-based. As to conditions: HEK293-Blue-hTLR8 cells, R848, 20 hrs; lowest tested concentration 0.0032. As to the method:
The following tests were carried out in order to determine the activity of the compounds of this invention in HEK293-Blue-hTLR-7/8/9 cells assay.
HEK293-Blue-hTLR-8 Cells Assay:
A stable HEK293-Blue-hTLR-8 cell line was purchased from InvivoGen (Cat. #: hkb-htlr8, San Diego, Calif., USA). These cells were originally designed for studying the stimulation of human TLR8 by monitoring the activation of NF-κB. A SEAP (secreted embryonic alkaline phosphatase) reporter gene was placed under the control of the IFN-β minimal promoter fused to five NF-κB and AP-1-binding sites. The SEAP was induced by activating NF-κB and AP-1 via stimulating HEK-Blue hTLR8 cells with TLR8 ligands. Therefore the reporter expression was declined by TLR8 antagonist under the stimulation of a ligand, such as R848, for incubation of 20 hrs. The cell culture supernatant SEAP reporter activity was determined using QUANTI-Blue™kit (Cat. #: rep-qb1, Invivogen, San Diego, Calif., USA) at a wavelength of 640 nm, a detection medium that turns purple or blue in the presence of alkaline phosphatase.
HEK293-Blue-hTLR8 cells were incubated at a density of […] cells/mL in a volume of 170 μL in a 96-well plate in Dulbecco's Modified Eagle's medium (DMEM) containing 4.5 g/L glucose, 50 U/mL penicillin, […], […], 2 mM L-glutamine, 10% (v/v) heat-inactivated fetal bovine serum with addition of 20 μL test compound in a serial dilution in the presence of final DMSO at 1% and 10 μL of 60 uM R848 in above DMEM, perform incubation under 37° C. in a CO2 incubator for 20 hrs. Then 20 μL of the supernatant from each well was incubated with 180 μL Quanti-blue substrate solution at 37° C. for 2 hrs and the absorbance was read at 620˜655 nm using a spectrophotometer. The signalling pathway that TLR8 activation leads to downstream NF-κB activation has been widely accepted, and therefore similar reporter assay was modified for evaluating TLR8 antagonist.
Usually IC50 stands for the concentration that inhibits the measured activity by half. Higher therefore signals weaker potency. Regarding `C[C@H]1C[C@@H](N2CCc3cc(N4CCNCC4)ccc3C2)CN(c2ccc(C#N)c3ncccc23)C1` (relative stereo) [Example 24, 5-[cis-3-methyl-5-(6-piperazin-1-yl-3,4-dihydro-1H-isoquinolin-2-yl)-1-piperidyl]quinoline-8-carbonitrile], the IC50 is less than 3.2 nM.
For `C[C@H]1C[C@@H](NCc2ccc(N3CCNCC3)cc2)CN(c2ccc(C#N)c3ncccc23)C1` [Example 1, 5-[(3S,5R)-3-methyl-5-[(4-piperazin-1-ylphenyl)methylamino]1-piperidyl]quinoline-8-carbonitrile] the value was less than 3.2 nM; for `C[C@H]1C[C@@H](NCc2ccc(C3CCNCC3)cc2)CN(c2ccc(C#N)c3ncccc23)C1` [Example 2, 5-[(3S,5R)-3-methyl-5-[[4-(4-piperidyl)phenyl]methylamino]-1-piperidyl]quinoline-8-carbonitrile], 6 nM; for `C[C@H]1C[C@@H](NCc2ccc(N3CCNCC3)cc2)CN(c2ccc(C#N)c3nccnc23)C1` [Example 3, 8-[(3S,5R)-3-methyl-5-[(4-piperazin-1-ylphenyl)methylamino]-1-piperidyl]quinoxaline-5-carbonitrile], 4 nM.
Regarding `C[C@H]1C[C@@H](NCc2ccc(N3CCNCC3)cc2F)CN(c2ccc(C#N)c3ncccc23)C1` [Example 4, 5-[(3R,58)-3-[(2-fluoro-4-piperazin-1-yl-phenyl)methylamino]-5-methyl-1-piperidyl]quinoline-8-carbonitrile], the IC50 was less than 3.2 nM.
The same measure for `C[C@H]1C[C@@H](NCc2ccc(N3CCNCC3)cn2)CN(c2ccc(C#N)c3ncccc23)C1` [Example 5, 5-[(3S,5R)-3-methyl-5-[(5-piperazin-1-yl-2-pyridyl)methylamino]-1-piperidyl]quinoline-8-carbonitrile]: 6 nM.
Turning to `C[C@H]1C[C@@H](NCc2cccc(N3CCN(C)CC3)c2)CN(c2ccc(C#N)c3ncccc23)C1` [Example 6, 5-[(3S,5R)-3-methyl-5-[[3-(4-methylpiperazin-1-yl)phenyl]methylamino]-1-piperidyl]quinoline-8-carbonitrile], the midpoint of inhibition, the IC50, lay at 4 nM.
Consider `C[C@H]1C[C@@H](NCc2ccc(N3CCN(C)CC3)cc2)CN(c2ccc(C#N)c3ncccc23)C1` [Example 7, 5-[(3S,5R)-3-methyl-5-[[4-(4-methylpiperazin-1-yl)phenyl]methylamino]-1-piperidyl]quinoline-8-carbonitrile], for which the half-maximal inhibitory concentration (IC50) is less than 3.2 nM.
For `C[C@H]1C[C@@H](NCc2cccc(N3CCNCC3)c2)CN(c2ccc(C#N)c3ncccc23)C1` [Example 8, 5-[(3S,5R)-3-methyl-5-[(3-piperazin-1-ylphenyl)methylamino]-1-piperidyl]quinoline-8-carbonitrile] the value was 9 nM; for `C[C@H]1C[C@@H](N(C)Cc2ccc(N3CCNCC3)cc2)CN(c2ccc(C#N)c3ncccc23)C1` [Example 9, 5-[(3S,5R)-3-methyl-5-[methyl-[(4-piperazin-1-ylphenyl)methyl]amino]-1-piperidyl]quinoline-8-carbonitrile], 5 nM; for `C[C@H]1C[C@@H](NCc2ccc(N3CCNCC3)nc2)CN(c2ccc(C#N)c3ncccc23)C1` [Example 10], less than 3.2 nM.
For `C[C@H]1C[C@@H](NCc2ccc3c(c2)CCNC3)CN(c2ccc(C#N)c3ncccc23)C1` [Example 11, 5-[(3S,5R)-3-methyl-5-(1,2,3,4-tetrahydroisoquinolin-6-ylmethylamino)-1-piperidyl]quinoline-8-carbonitrile] the value was less than 3.2 nM.
The same measure for `C[C@H]1C[C@@H](N2Cc3ccc(N4CCNCC4)cc3C2)CN(c2ccc(C#N)c3ncccc23)C1` [Example 12, 5-[(3S,5R)-3-methyl-5-(5-piperazin-1-ylisoindolin-2-yl)-1-piperidyl]quinoline-8-carbonitrile]: less than 3.2 nM; for `C[C@H]1C[C@@H](NCc2ccc(N3CCC(N)C3)cc2)CN(c2ccc(C#N)c3ncccc23)C1` (stereo partly drawn) [Example 13, 5-[(3R,5S)-3-[[4-(3-aminopyrrolidin-1-yl)phenyl]methylamino]-5-methyl-1-piperidyl]quinoline-8-carbonitrile]: 6 nM; for `Cc1cc(-c2ccc(CN[C@@H]3C[C@H](C)CN(c4ccc(C#N)c5ncccc45)C3)cc2)cc(C)n1` [Example 15, 5-[(3R,5S)-3-[[4-(2,6-dimethyl-4-pyridyl)phenyl]methylamino]-5-methyl-1-piperidyl]quinoline-8-carbonitrile]: 10 nM.
On to `C[C@H]1C[C@@H](NCc2cnc(N3CCN(C)CC3)nc2)CN(c2ccc(C#N)c3ncccc23)C1` [Example 16, 5-[(3S,5R)-3-methyl-5-[[2-(4-methylpiperazin-1-yl)pyrimidin-5-yl]methylamino]-1-piperidyl]quinoline-8-carbonitrile], for which the half-inhibitory concentration (IC50) is less than 3.2 nM.
For `C[C@H]1C[C@@H](NCc2cnc(N3CCNCC3)nc2)CN(c2ccc(C#N)c3ncccc23)C1` [Example 17, 5-[(3S,5R)-3-methyl-5-[(2-piperazin-1-ylpyrimidin-5-yl)methylamino]-1-piperidyl]quinoline-8-carbonitrile] the value was less than 3.2 nM; for `C[C@H]1C[C@@H](NCc2ccc(N3CCN(C)CC3)cn2)CN(c2ccc(C#N)c3ncsc23)C1` [Example 18, 7-[(3S,5R)-3-methyl-5-[[5-(4-methylpiperazin-1-yl)-2-pyridyl]methylamino]-1-piperidyl]-1,3-benzothiazole-4-carbonitrile], less than 3.2 nM; for `C[C@H]1C[C@@H](NCc2ccc(N3CCNCC3)cc2)CN(c2ccc(C#N)n3nccc23)C1` [Example 21, 4-[(3S,5R)-3-methyl-5-[(4-piperazin-1-ylphenyl)methylamino]-1-piperidyl]pyrazolo[1,5-a]pyridine-7-carbonitrile], 42 nM.
`C[C@H]1C[C@@H](NCc2ccc(N3CCNCC3)cc2)CN(c2ccc(Cl)c3ncccc23)C1` [Example 22, (3R,5S)-1-(8-chloro-5-quinolyl)-5-methyl-N-[(4-piperazin-1-ylphenyl)methyl]piperidin-3-amine] displayed an IC50 of 5 nM.
For `C[C@H]1C[C@@H](N2Cc3cc(N4CCNCC4)cnc3C2)CN(c2ccc(C#N)c3ncccc23)C1` [Example 23, 5-[(3S,5R)-3-methyl-5-(3-piperazin-1-yl-5,7-dihydropyrrolo[3,4-b]pyridin-6-yl)-1-piperidyl]quinoline-8-carbonitrile] the value was 4 nM.
The compound `C[C@H]1C[C@@H](NCc2ncc(N3CCNCC3)cn2)CN(c2ccc(C#N)c3ncccc23)C1` [Example 25, 5-[(3S,5R)-3-methyl-5-[(5-piperazin-1-ylpyrimidin-2-yl)methylamino]-1-piperidyl]quinoline-8-carbonitrile] registered a 50% inhibitory concentration (IC50) of less than 3.2 nM.
Turning to `CC(N[C@@H]1C[C@H](C)CN(c2ccc(C#N)c3ncccc23)C1)c1ccc(N2CCNCC2)cc1` (stereo partly drawn) [Example 26, 5-[(3S,5R)-3-methyl-5-[1-(4-piperazin-1-ylphenyl)ethylamino]-1-piperidyl]quinoline-8-carbonitrile], the half-maximal inhibitory concentration (IC50) was not above 3 nM.
